Results reported in publication PMC5035006, “Binding and Inhibition of Spermidine Synthase from Plasmodium falciparum and Implications for In Vitro Inhibitor Testing” (PLoS ONE, 2016).
Where “and” joins values, the source holds several entries; their conditions need not be identical. Equal entries are not always repeated. Where two headings read alike, the source gives them in different places.

Key:
PfSpdS [1] = target: T1, PfSpdS (Plasmodium falciparum, UniProt Q8II73); assay: biochemical; conditions: for inhibitory effects on PfSpdS activity: at concentrations of 0.1 or 1 mM, data not shown
T1 sequence (Q8II73 entry or part of it): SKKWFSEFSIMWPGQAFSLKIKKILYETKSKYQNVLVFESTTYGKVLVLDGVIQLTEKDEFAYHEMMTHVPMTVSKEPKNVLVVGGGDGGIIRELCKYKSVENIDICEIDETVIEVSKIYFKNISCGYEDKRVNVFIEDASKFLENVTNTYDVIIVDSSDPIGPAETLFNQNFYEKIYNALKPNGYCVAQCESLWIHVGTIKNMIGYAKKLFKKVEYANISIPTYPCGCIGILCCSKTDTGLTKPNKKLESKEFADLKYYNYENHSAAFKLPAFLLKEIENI
Description: The enzyme assays were incubated for 30 min at 37°C and terminated by addition of 100 μl of 0.4 M HClO4. The amount of spermidine formed was determined by HPLC with θ-phthaldialdehyde as the reagent essentially as described by Seiler & Knödgen.
Determination of IC50 values was performed in standard assays containing increasing concentrations of inhibitors.

PfSpdS [2] = target: T1, PfSpdS; assay: biochemical; format: binding
Description: Protein samples of 1 mg/ml were dialyzed overnight at 4°C against buffer containing 100 mM HEPES, pH 7.5, 250 mM NaCl. Protein concentration was determined by UV absorption (A280 = 1 for 1.3 mg/mL) immediately before loading into the calorimeter cell. […] The protein at a concentration of 0.8–30 μM was loaded into the sample cell of a VP-ITC microcalorimeter (MicroCal, Inc.). All measurements were performed at 25°C with 25 injections of the ligand of 10 μl each delivered in 20 s with 240 s delays between injections. […] Titrations of ligands into dialysis buffer were performed additionally and in case of non-negligible dilution heat the dilution profile(s) were subtracted point-by-point from the reaction profile. The dilution factor was taken into account for the binding curve fitting. Prior to titration of a second ligand into protein in presence of a first ligand, titration of dcAdoMet or MTA was carried out to saturating concentrations. […] The ligand- and buffer-subtracted integrated binding data were fitted using a single-site binding model in MicroCal Origin software.
The solution conditions for which the reported parameter values apply are 100 mM HEPES pH 7.5, 250 mM NaCl, 25°C.

mammalian SpdS = conditions: cited from earlier work
PfSpdS [3] = target: T1, PfSpdS; conditions: cited from earlier work
PfSpdS [4] = target: T1, PfSpdS; design: method as in PMID 18410081; conditions: cited from earlier work
P. falciparum = system: P. falciparum; design: method as in PMID 15913804; conditions: at micromolar concentrations; cited from earlier work
human SpdS = target: human SpdS; design: method as in PMID 21898642; conditions: 20 mM sodium phosphate pH 7.5, 50 mM NaCl, 25°C; cited from earlier work
[5] = KD, PfSpdS saturated with MTA (ligand 1), values for ligand 2
[6] = KD, free PfSpdS, 100 mM HEPES pH 7.5, 250 mM NaCl, 25°C
[7] = free PfSpdS, 100 mM HEPES pH 7.5, 250 mM NaCl, 25°C
[8] = free PfSpdS, 100 mM HEPES pH 7.5, 250 mM NaCl, 25°C, read-out: KD
[9] = PfSpdS saturated with MTA (ligand 1), values for ligand 2
[10] = PfSpdS saturated with MTA (ligand 1), values for ligand 2, read-out: KD
[11] = free PfSpdS, listed as with footnote mark a
[12] = free PfSpdS, listed as with footnote mark b: fit was done setting N = 1

Cc1ccc(N)cc1 [4MAN, 4-methylaniline]
IC50 (PfSpdS [1]): 23 µM | Ki (PfSpdS [1]): 8.2 µM | Inhibition type (PfSpdS [1]; Lineweaver-Burke plots, 0.1 mM dcAdoMet): competitive with putrescine | affinity for free PfSpdS (in words) (PfSpdS [2]): no measurable affinity | Kd (PfSpdS [2]; [5]): > 300 µM | Kd (PfSpdS [2]; KD, PfSpdS saturated with dcAdoMet (ligand 1), values for ligand 2): 7.7 ± 1.2 µM | Kd (PfSpdS [2]; [6]): > 300 µM | affinity to PfSpdS in presence of MTA (in words) (PfSpdS [2]; PfSpdS saturated with MTA, detection limit KD ~ 300 μM): no detectable affinity | IC50 (mammalian SpdS): 108 µM

5′-methylthioadenosine [MTA]
ΔH (PfSpdS [2]; [7]): -2.7 ± 0.3 kcal/mol | ΔS (PfSpdS [2]; [7]): 18.6 cal/mol/deg | Kd (PfSpdS [2]; [8]): 0.9 ± 0.5 µM | IC50 (PfSpdS [3]; 100 μM dcAdoMet, 200 μM putrescine): 160 µM and 159 µM | Inhibition type (PfSpdS [3]): product inhibition

NCCCN[C@H]1CC[C@H](N)CC1 [NACD]
ΔH (PfSpdS [2]; [9]): -0.6 ± 0.1 kcal/mol | ΔS (PfSpdS [2]; [9]): 28.4 cal/mol/deg | Kd (PfSpdS [2]; [10]): ~0.3 µM and 0.3 µM | ΔH (PfSpdS [2]; [11]): 51.8 ± 2.5 kcal/mol | ΔS (PfSpdS [2]; [11]): 196 cal/mol/deg | Kd (PfSpdS [2]; free PfSpdS, listed as with footnote mark a, read-out: KD): 8.4 ± 0.7 µM | ΔH (PfSpdS [2]; [12]): 17.6 ± 9.0 kcal/mol | ΔS (PfSpdS [2]; [12]): 82.8 cal/mol/deg | Kd (PfSpdS [2]; free PfSpdS, listed as with footnote mark b: fit was done setting N = 1, read-out: KD): 6.1 ± 1.6 µM

NCCCCCc1nc2ccccc2[nH]1 [BIPA, 5-(1H-benzimidazol-2-yl)pentan-1-amine]
IC50 (PfSpdS [1]; PfSpdS assays, L. Persson, unpublished results, read-out: IC50): > 100 µM | inhibitory effects on PfSpdS activity (PfSpdS [1]): no or only minor inhibitory effects | IC50 (PfSpdS [1]; read-out: IC50): > 1000 µM | ΔH (PfSpdS [2]; [7]): 1.5 ± 0.3 kcal/mol | ΔS (PfSpdS [2]; [7]): 27.1 cal/mol/deg | Kd (PfSpdS [2]; [8]): 15.2 ± 8.2 µM | binding to the enzyme by NMR spectroscopy (in words) (PfSpdS [4]): bind strongly

NCCCCCC(CCN)SCC1OC(n2cnc3c(N)ncnc32)C(O)C1O (stereo not drawn) [AdoDATO, S-adenosyl-3-thio-1,8-diaminooctane]
Inhibition type (PfSpdS [1]): mixed-type inhibition with putrescine | Ki uncompetitive (PfSpdS [1]): 12.2 µM | Ki (PfSpdS [1]; read-out: Ki competitive): 3.4 µM | IC50 (PfSpdS [1]; read-out: predicted IC50 from Eq (2)): 10 µM | ΔH (PfSpdS [2]; [7]): -5.5 ± 0.2 kcal/mol | ΔS (PfSpdS [2]; [7]): 6.9 cal/mol/deg | Kd (PfSpdS [2]; [8]): 2.8 ± 0.5 µM

NCc1ccc(N)cc1 [4AMA, 4-aminomethylaniline]
inhibitory effects on PfSpdS activity (PfSpdS [1]): no or only minor inhibitory effects | IC50 (PfSpdS [1]; read-out: IC50): > 1000 µM | affinity for free PfSpdS (in words) (PfSpdS [2]): no measurable affinity | ΔH (PfSpdS [2]; [9]): -3.5 ± 0.2 kcal/mol | ΔS (PfSpdS [2]; [9]): 7.84 cal/mol/deg | Kd (PfSpdS [2]; [10]): 45.3 ± 5.1 µM | Kd (PfSpdS [2]; PfSpdS saturated with dcAdoMet (ligand 1), values for ligand 2, read-out: KD): > 300 µM | Kd (PfSpdS [2]; [8]): > 300 µM

C[C@H]1CC[C@H](N)CC1 [4MCHA, trans-4-methylcyclohexylamine]
Inhibition type (PfSpdS [3]): competitive inhibitor with respect to putrescine | Ki (PfSpdS [3]): 0.18 µM | inhibition of P. falciparum cell growth in vitro (in words) (P. falciparum): strongly inhibit

NCCCSC[C@H]1O[C@@H](n2cnc3c(N)ncnc32)[C@H](O)[C@@H]1O [decarboxylated S-adenosylhomocysteine]
Kd (human SpdS): 1.1 µM

NCCCCN [Putrescine, putrescine]
Kd (PfSpdS [2]; [5]): 59.5 ± 8.2 µM | Kd (PfSpdS [2]; [6]): > 300 µM | ΔH (PfSpdS [2]; [9]): -12.4 ± 0.9 kcal/mol | ΔS (PfSpdS [2]; [9]): -22.4 cal/mol/deg | affinity for free PfSpdS (in words) (PfSpdS [2]; free PfSpdS, detection limit KD ~ 300 μM): no measurable affinity | Km (PfSpdS [3]; read-out: Km for putrescine, 29-residue-truncated PfSpdS): 52 µM

NCCCCNCCCN [Spermidine, spermidine]
affinity for free PfSpdS (in words) (PfSpdS [2]): no measurable affinity | Kd (PfSpdS [2]; [5]): 1.2 ± 0.3 µM | Kd (PfSpdS [2]; [6]): > 300 µM | ΔH (PfSpdS [2]; [9]): -6.1 ± 0.3 kcal/mol | ΔS (PfSpdS [2]; [9]): 6.74 cal/mol/deg

C[S+](CCCN)CC1OC(n2cnc3c(N)ncnc32)C(O)C1O (stereo not drawn) [dcAdoMet, decarboxylated S-adenosylmethionine]
Kd (PfSpdS [2]; [6]): 3.7 ± 0.7 µM | ΔH (PfSpdS [2]; [7]): -2.4 ± 0.2 kcal/mol | ΔS (PfSpdS [2]; [7]): 16.7 cal/mol/deg
